Source: ChEMBL document CHEMBL1131831, “A rapid method to identify exo-protease inhibitors” (Bioorg Med Chem Lett, 1999)

Assays:
Trypsin = Trypsin (Sus scrofa, UniProt P00761); assay: Inhibition constant (Ki) against trypsin enzyme for the conversion of water-soluble compound to fluorescent oil-soluble compound
[1] = biological target: Leukocyte elastase (Homo sapiens); assay: Inhibition constant (Ki) against human leukocyte elastase.
[2] = biological target: Leukocyte elastase (Homo sapiens); assay: Inhibition constant (Ki) when mixed with p-nitroanilide against human leukocyte elastase for the conversion of water-soluble compound to fluorescent oil-soluble compound

Sequence of Trypsin (P00761 whole entry): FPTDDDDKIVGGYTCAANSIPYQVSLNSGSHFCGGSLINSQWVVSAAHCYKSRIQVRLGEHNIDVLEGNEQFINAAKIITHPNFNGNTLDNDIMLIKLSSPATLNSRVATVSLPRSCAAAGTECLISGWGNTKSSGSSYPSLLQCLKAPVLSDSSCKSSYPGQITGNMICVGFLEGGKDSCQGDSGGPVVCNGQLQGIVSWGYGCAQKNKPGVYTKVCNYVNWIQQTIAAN

Row | Compound | Ki (Trypsin) [µM] | Ki [1] [µM] | Ki [2] [µM]
1 | O=C1C=CC(=O)N1c1ccccc1 | ~800 | – | –
2 | CC(NC(=O)[C@H](C)NC(=O)c1cccc2c1Oc1c(C(=O)NC(C)C(=O)N[C@@H](C)C(=O)O)cccc1C2(C)C)C(=O)O (single isomer, unassigned) | – | 248 | –
3 | CC(C)C(NC(=O)c1cccc2c1Oc1c(C(=O)N[C@H](C(=O)O)C(C)C)cccc1C2(C)C)C(=O)O (single isomer, unassigned) | – | 515 | –
4 | CC(NC(=O)[C@H](C)NC(=O)c1cccc2c1Oc1c(C(=O)NC(C(=O)O)C(C)C)cccc1C2(C)C)C(=O)O (single isomer, unassigned) | – | 86 | 0.128
